Measurements: US8802702B2, “Compounds for reducing drug resistance and uses thereof” (The General Hospital Corporation, priority 2009, dated 2014)
Entries after “also recorded” stand apart in the source; their conditions may differ. Read-outs that look alike come from different tables or passages of the source.

Columns and labels:
[1] = system: MDR cell lines where MDR1 (Pgp1) is highly expressed; assay: Reversal of chemoresistance across panel of MDR cell lines with various anti-cancer agents
Protocol: Screening conditions in drug resistant cells were optimized in 96-well plates for optimal growth conditions, small molecular compound and drug concentration and assay times prior to screening. On day 1, drug resistant cells were seeded at 2×10^4 cells/well on 96-well plates and labeled with plates A, B, and incubated for 24 hr at 37° C. On day 2, plate A was treated with a test compound at 1 μM to each well without paclitaxel; Plate B was treated with both a test compound and paclitaxe at specifically prescribed concentrations. From day 4 to day 6, fresh medium was replaced with necessity as described above and evaluated for cytotoxicity under the microscope. On Day 6, the number of viable cells was evaluated for cytotoxicity in any wells under the microscope manually and final results were determined via […]96™ AQ One Solution Cell Cytotoxicity Assay (Promega, Madison, Wis.) by a SPECTRAIVIAX.™ Microplate Spectrophotometer (Molecular Devices, Sunnyvale, Calif.).
The general format was designed for screening the small molecular compound library and identifying novel drug resistant inhibitor. These include evaluation of each small molecular compound through a well studied multidrug resistant cell line SKOV-3TR. The experiments were conducted in two control plates (A and B) and one experimental plate (C) to permit plate-to-plate comparisons (FIG. 1). The control plates (plate A and B) were used to evaluate cytotoxicity of paclitaxel and small molecular compound itself, and to exclude compound that were lethal to the cells in the absence of chemotherapy drug. […] because the goal of this study was to identify small molecular compound that can reverse drug resistance and not to determine cell toxicity. […] Small molecular compound that were associated with cell survival in plate A and plate B and death in plate C were identified as “hits” and selected for further study.
Furthermore, other cell lines with non-Pgp1 mediated MDR mechanisms were tested (H69/AR cells that express MRP1, but not Pgp1, and MCF-7 MX cells that express BCRP, but not Pgp1) to evaluate the specificity of NSC23925.

[2] = system: H69/AR cells (express MRP1, not Pgp1); assay: Reversal of drug resistance in non-Pgp1 MDR cells expressing MRP1; assay type: cell-based, human
[3] = system: SKOV-3 and SKOV-3TR cells; assay: Cytotoxicity of NSC23925 alone (MTT assay), SKOV-3/SKOV-3TR; assay type: cell-based, human
Protocol: Drug cytotoxicity was determined by MTT assay. […] Cells were treated with the NSC23925 in RPMI1640 complete media at the indicated concentrations. The relative sensitivity of each line to NSC23925 was determined by MTT assay. A: Nonspecific toxicity of NSC23925 on SKOV3 vs SKOV-3TR. B: Nonspecific toxicity of NSC23925 on OVCAR8 vs OVCAR8TR. Drug cytotoxicity was assessed in vitro using the MTT assay. SKOV-3 and SKOV-3TR cells were used herein. Briefly, 2×10^3 cells per well were plated in 96-well plates in culture medium (RPMI 1640 supplemented with 10% fetal bovine serum and penicillin/streptomycin) containing increasing concentrations of drug. […] The resulting formazan product was dissolved with acid-isopropanol and the absorbance at a wavelength of 490 nm (A490) was read on a SPECTRAmax® Microplate Spectrophotometer (Molecular Devices, Sunnyvale, Calif.). The absorbance values were normalized by assigning the value of the control line in the medium without drug to 1.0 and the value of the no cell control to 0. Experiments were performed in triplicate.

SKOV-3 and OVCAR8 cells = assay: Calcein AM drug efflux assay in parental drug-sensitive cells; assay type: cell-based, human; conditions: SKOV-3 and OVCAR8, do not overexpress Pgp1
Text: The VYBRANT™ multi-drug resistance assay kit (Invitrogen/Molecular Probes) was used to measure drug efflux properties of different resistant cell lines. This assay utilizes the fluorogenic dye calcein acetoxymethyl ester (calcein AM) as a substrate for efflux activity of Pgp1 or other membrane pump ABC proteins. Calcein AM is taken up by cells and hydrolyzed by cytoplasmic esterases to fluorescent calcein. Calcein AM is well retained in the cytosol. However, multi-drug resistant cells expressing high levels of Pgp1 rapidly extrude non-fluorescent calcein AM from the plasma membrane, reducing accumulation of fluorescent calcein in the cytosol. Drug sensitive and resistant cells (3×10^5) were cultured in 96-well plate for 24 hours and then incubated in 0.25 μM calcein AM in 150 μl total volume. After 30 minutes, the cells in plate were washed and centrifuged twice with 200 μl cold RPMI1640 culture medium, and cell fluorescence was measured at a […] on a SPECTRAMAX™ Microplate Spectrofluorometer (Molecular Devices).

OVCAR8TR cells = assay: Reversal of drug resistance, cytotoxicity (MTT) assay in OVCAR8TR; assay type: cell-based, human; conditions: for IC50: Homo sapiens
[4] = value = anti-cancer drug used in conjunction

## COc1ccc(-c2cc(C(O)C3CCCCN3)c3ccccc3n2)cc1 (stereo not shown) [NSC23925, (2-(4-methoxyphenyl)quinolin-4-yl)(piperidin-2-yl)methanol]
[1]; SKOV-3TR, OVCAR8TR, MCF-7TR, MESSA/Dx5, KHOS R2, U-2OSDR
  Reversal of chemoresistance in tumor types where MDR1 is highly expressed: reverses chemoresistance
[1]; agents unaffected by MDR1 mechanisms
  Effect on cytotoxicity of cisplatin and methotrexate: did not alter the cytotoxicity
[1]; [4]
  Reverse Drug Resistance by NSC23925: Decreased drug resistance (to the anti-cancer drug named in the cell): Vincristine; also recorded: Gemcitabine; also recorded: ET-743; also recorded: PM00104; also recorded: Paclitaxel; also recorded: Docetaxel; also recorded: Doxorubicin; also recorded: Daunorubicin
  Reverse Drug Resistance by NSC23925: No effect (on the anti-cancer drug named in the cell): Cisplatin; also recorded: Carboplatin; also recorded: Topotecan; also recorded: Methotrexate
[1]; with paclitaxel, docetaxel, doxorubicin, daunorubicin, gemcitabine, vincristine, ET-743 or PM00104
  Reversal of chemoresistance in conjunction with anti-cancer agents: significant reversal of chemoresistance
[2]
  Reversal of drug resistance in H69/AR cells: unable to reverse drug resistance
[3]; <5-10 μM NSC23925 alone, cells lack Pgp1
  Cytotoxic effect of NSC23925 alone in parental SKOV-3: no cytotoxic effect
[3]; Homo sapiens, SKOV-3/SKOV-3TR, single agent, read-out: IC50 for NSC23925 (proliferation)
  IC50: 8000 nM
[3]; Pgp1-overexpressing SKOV-3TR cells, 72 hours, MTT
  Effect of verapamil on the cytotoxic effect of NSC23925: did not influence the cytotoxic effect
[3]; both sensitive and resistant cell lines
  Doses at which NSC23925 by itself is noncytotoxic: up to 10 μM
[3]; concluded from matched cell line IC50s and verapamil co-treatment
  Pgp1 transport substrate status: not a substrate of Pgp1
SKOV-3 and OVCAR8 cells
  Effect on accumulation of calcein AM in parental drug-sensitive cells: no evident effect
OVCAR8TR cells; Doxorubicin, add NSC23925 0.1 μM
  fold-reversal of drug resistance, OVCAR8TR: (2.3) fold
OVCAR8TR cells; Doxorubicin, add NSC23925 0.5 μM
  fold-reversal of drug resistance, OVCAR8TR: (5.3) fold
OVCAR8TR cells; Doxorubicin, add NSC23925 1 μM
  fold-reversal of drug resistance, OVCAR8TR: (23) fold
OVCAR8TR cells; ET-743, add NSC23925 0.1 μM
  fold-reversal of drug resistance, OVCAR8TR: (1.2) fold
OVCAR8TR cells; ET-743, add NSC23925 0.5 μM
  fold-reversal of drug resistance, OVCAR8TR: (1.2) fold
OVCAR8TR cells; ET-743, add NSC23925 1 μM
  fold-reversal of drug resistance, OVCAR8TR: (0.9) fold
OVCAR8TR cells; Doxorubicin, add NSC23925 0.1 μM, read-out: OVCAR8TR IC50 of Doxorubicin
  IC50: 12400 ± 360 nM
OVCAR8TR cells; Doxorubicin, add NSC23925 0.5 μM, read-out: OVCAR8TR IC50 of Doxorubicin
  IC50: 5200 ± 471 nM
OVCAR8TR cells; Doxorubicin, add NSC23925 1 μM, read-out: OVCAR8TR IC50 of Doxorubicin
  IC50: 1220 ± 122 nM
OVCAR8TR cells; ET-743, add NSC23925 0.1 μM, read-out: OVCAR8TR IC50 of ET-743
  IC50: 5 ± 1 nM
OVCAR8TR cells; ET-743, add NSC23925 0.5 μM, read-out: OVCAR8TR IC50 of ET-743
  IC50: 5 ± 1 nM
OVCAR8TR cells; ET-743, add NSC23925 1 μM, read-out: OVCAR8TR IC50 of ET-743
  IC50: 7 ± 2 nM
OVCAR8TR cells; PM00104, add NSC23925 0.1 μM, read-out: OVCAR8TR IC50 of PM00104
  IC50: 8 ± 2 nM
OVCAR8TR cells; PM00104, add NSC23925 0.5 μM, read-out: OVCAR8TR IC50 of PM00104
  IC50: 6 ± 2 nM
OVCAR8TR cells; PM00104, add NSC23925 1 μM, read-out: OVCAR8TR IC50 of PM00104
  IC50: 5 ± 2 nM
OVCAR8TR cells; Paclitaxel, add NSC23925 0.5 μM, read-out: OVCAR8TR IC50 of Paclitaxel
  IC50: 72 ± 46 nM
OVCAR8TR cells; Paclitaxel, add NSC23925 1 μM, read-out: OVCAR8TR IC50 of Paclitaxel
  IC50: 28 ± 47 nM
OVCAR8TR cells; PM00104, add NSC23925 0.1 μM
  fold-reversal of drug resistance, OVCAR8TR: (1) fold
OVCAR8TR cells; PM00104, add NSC23925 0.5 μM
  fold-reversal of drug resistance, OVCAR8TR: (1.3) fold
OVCAR8TR cells; PM00104, add NSC23925 1 μM
  fold-reversal of drug resistance, OVCAR8TR: (1.6) fold
OVCAR8TR cells; Paclitaxel, add NSC23925 0.1 μM
  fold-reversal of drug resistance, OVCAR8TR: (2.7) fold
OVCAR8TR cells; Paclitaxel, add NSC23925 1 μM
  fold-reversal of drug resistance, OVCAR8TR: (12.1) fold
